The text below walks through data of ChEMBL document CHEMBL2169844, “6β-N-heterocyclic substituted naltrexamine derivative NAP as a potential lead to develop peripheral mu opioid receptor selective antagonists” (Bioorg Med Chem Lett, 2012).

The subject of data set [1] is Mus musculus. Kind of data set: Increase in gastrointestinal motility in sc dosed morphine-pelleted mouse administered 20 mins before forced charcoal meal measured after 30 mins. It counts as functional.
Data set [2] relates to Mus musculus. Kind of data set: Toxicity in morphine-pelleted mouse assessed as diarrhea at 0.3 mg/kg, sc. The data set is classed as organism-based. Details: dose 0.3 mg/kg, route subcutaneous. As to conditions: in vivo.
The subject of data set [3] is Mus musculus. The data set is described as follows: Increase in gastrointestinal motility in morphine-pelleted mouse assessed as increase in stool weight at 0.3 to 1 mg/kg, sc administered 20 mins before forced charcoal meal measured after 30 mins. The data set is classed as functional, organism-based.
Data set [4] has as its system Mus musculus. The data set is described as follows: Increase in gastrointestinal motility in morphine-pelleted mouse assessed as decrease in stool weight at 0.3 to 1 mg/kg, sc administered 20 mins before forced charcoal meal measured after 30 mins. It counts as functional, organism-based.
Data set [5] has as its system Mus musculus. The data set is described as follows: Increase in gastrointestinal motility in morphine-pelleted mouse assessed as decrease in stool weight at 0.3 to 3 mg/kg, sc administered 20 mins before forced charcoal meal measured after 30 mins. The data set is classed as functional, organism-based.
In data set [6] the test system is Mus musculus. Kind of data set: Increase in gastrointestinal motility in morphine-naive mouse assessed as decrease in stool weight at 0.3 mg/kg, sc administered 20 mins before forced charcoal meal measured after 30 mins. It counts as functional, organism-based. Also noted: dose 0.3 mg/kg.
Data set [7] concerns Mus musculus. The data set is described as follows: Increase in gastrointestinal motility in morphine-naive mouse assessed as decrease in stool weight at 30 mg/kg, sc administered 20 mins before forced charcoal meal measured after 30 mins. Also noted: dose 30 mg/kg. It counts as functional, organism-based.
For data set [8], the system named is Mus musculus. The data set is described as follows: Increase in gastrointestinal motility in morphine-naive mouse assessed as decrease in stool weight at 3 mg/kg, sc administered 20 mins before forced charcoal meal measured after 30 mins. The data set is classed as functional, organism-based. Also noted: dose 3 mg/kg.
The test system of data set [9] is Mus musculus. Kind of data set: Toxicity in mouse assessed as lower locomotory activity measured as walking at 32 mg/kg, iv followed by morphine at 32 mg/kg, sc. The data set is classed as organism-based. The conditions noted are these: in vivo.
Data set [10] relates to Mus musculus. Kind of data set: Toxicity in mouse assessed as high locomotory activity measured as jumping up to 50 mg/kg, iv followed by morphine at 32 mg/kg, sc. The data set is classed as organism-based. As to conditions: in vivo.
Data set [11] concerns Mus musculus. Kind of data set: Toxicity in mouse assessed as wet dog shakes at 50 mg/kg, iv followed by morphine at 32 mg/kg, sc. As to conditions: in vivo. It counts as organism-based.
For data set [12], the species on record is Mus musculus. Kind of data set: Ratio of naltrexone to compound for toxicity in mouse assessed as reduced wet dog shakes. It counts as organism-based. As to conditions: in vivo.
For data set [13], the species on record is Mus musculus. The data set is described as follows: Ratio of naloxone to compound for toxicity in mouse assessed as reduced wet dog shakes. The conditions noted are these: in vivo. It counts as organism-based.
Data set [14] is filed under the species Mus musculus. Kind of data set: Ratio of ED50 for increase in gastrointestinal motility in morphine-pelleted mouse to ED50 for toxicity in mouse assessed as lower locomotory activity. It counts as functional.
Data set [15] deals with Mu-type opioid receptor (Rattus norvegicus) (UniProt P33535). Kind of data set: Partial agonist activity at mu opioid receptor in rat thalamus assessed as stimulation of [35S]-GTP[gammaS]-binding relative to DAMGO. It counts as functional, tissue-based. (In general: Binding of GTPγS marks nucleotide exchange on a G protein.)
Sequence of Mu-type opioid receptor (Rattus norvegicus) (P33535 whole entry): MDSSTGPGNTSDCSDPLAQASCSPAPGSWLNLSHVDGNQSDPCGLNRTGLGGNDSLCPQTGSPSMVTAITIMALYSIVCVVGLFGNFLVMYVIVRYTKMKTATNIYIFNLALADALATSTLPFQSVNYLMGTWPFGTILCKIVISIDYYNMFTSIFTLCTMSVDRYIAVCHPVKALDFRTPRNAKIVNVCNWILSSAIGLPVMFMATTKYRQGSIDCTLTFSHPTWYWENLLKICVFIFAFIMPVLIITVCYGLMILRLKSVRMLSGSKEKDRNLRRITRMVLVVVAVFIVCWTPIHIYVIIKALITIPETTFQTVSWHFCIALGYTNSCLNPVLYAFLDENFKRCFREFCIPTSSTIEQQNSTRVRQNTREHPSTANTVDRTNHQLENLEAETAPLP
The subject of data set [16] is Mus musculus. Kind of data set: Increase in gastrointestinal motility in morphine-pelleted mouse at 0.3 mg/kg, sc administered 20 mins before forced charcoal meal measured after 30 mins. The data set is classed as functional, organism-based. Also noted: dose 0.3 mg/kg.
Data set [17] deals with Mus musculus. The data set is described as follows: Increase in gastrointestinal motility in morphine-pelleted mouse at 1 mg/kg, sc administered 20 mins before forced charcoal meal measured after 30 mins. Details: dose 1 mg/kg. The data set is classed as functional, organism-based.
Data set [18] deals with Mus musculus. The data set is described as follows: Increase in gastrointestinal motility in morphine-pelleted mouse at 3 mg/kg, sc administered 20 mins before forced charcoal meal measured after 30 mins. Details: dose 3 mg/kg. It counts as functional, organism-based.
Data set [19] relates to Mus musculus. The data set is described as follows: Increase in gastrointestinal motility in morphine-pelleted mouse at 0.003 to 0.03 mg/kg, sc administered 20 mins before forced charcoal meal measured after 30 mins. The data set is classed as functional, organism-based.
Data set [20] concerns Mus musculus. Kind of data set: Ratio of ED50 for MNTX to compound ED50 for morphine-pelleted mouse administered 20 mins before forced charcoal meal measured after 30 mins. It counts as functional.

Molecules are shown by their SMILES. The source made the active and inactive calls. No cut-off for these calls is given here.

Broadly, the ED50 is the dose that gives a 50% effect, or the effect in half of the subjects. The Emax is the greatest response seen or fitted, relative to the assay's reference.

With `C[N+]1(CC2CC2)CC[C@]23c4c5ccc(O)c4O[C@H]2C(=O)CC[C@@]3(O)[C@H]1C5` (stereo partly specified) [METHYLNALTREXONE], in data set [1], the ED50 was 2.5 mg/kg.

As for `O=C(N[C@@H]1CC[C@@]2(O)[C@H]3Cc4ccc(O)c5c4[C@@]2(CCN3CC2CC2)[C@H]1O5)c1ccncc1`, the Activity entry in data set [2], in data set [9], in data set [10] and in data set [11] was “Toxic” each time. The result in data set [3], in data set [5], in data set [6], in data set [7] and in data set [19] was inactive. The outcome in [4], in data set [8], in data set [16], in data set [17] and in data set [18] was Active. For the same compound, the Ratio in data set [12] and in data set [13] was 50 each time. The “Ratio ED50” value in data set [14] was more than 3600; in [20], 300. Further, the Emax in data set [15] turned out to be 16.7%. It took a dose of 0.0088 mg/kg to reach the 50% effect level in data set [1] (ED50).
